# Source: the supplement of paper PMC11451515
# Test system: SEM cells
# Assay: cell viability relative to DMSO control; higher = less cytotoxic
# Conditions: 48 h
# Method in brief: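 Library compounds in DMSO were pin-dosed in an 11-point threefold series (47 μM to 0.79 nM) onto leukemia cells in 1536-well plates (5 μl). Plates held 500 cells/well of NOMO1 or SEM or 1000 cells/well of P12-Ichikawa, each adapted for at least four passages in each medium. Luminescence was read with CellTiter-Glo One after 48 h at 37°C. Viability means the per-plate percentage relative to DMSO wells, using cell-free wells as background.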
# [1] = HPLM + 10% dialyzed FBS, 0.000781 µM
# [2] = HPLM + 10% dialyzed FBS, 0.00234 µM
# [3] = HPLM + 10% dialyzed FBS, 0.00702 µM
# [4] = HPLM + 10% dialyzed FBS, 0.0211 µM
# [5] = HPLM + 10% dialyzed FBS, 0.0632 µM
# [6] = HPLM + 10% dialyzed FBS, 0.19 µM
# [7] = HPLM + 10% dialyzed FBS, 0.569 µM
# [8] = HPLM + 10% dialyzed FBS, 1.71 µM
# [9] = HPLM + 10% dialyzed FBS, 5.12 µM
# [10] = HPLM + 10% dialyzed FBS, 15.4 µM
# [11] = HPLM + 10% dialyzed FBS, 46.1 µM
# [12] = RPMI 5 mM glucose + 10% FBS, 0.000781 µM
# [13] = RPMI 5 mM glucose + 10% FBS, 0.00234 µM
# [14] = RPMI 5 mM glucose + 10% FBS, 0.00702 µM
# [15] = RPMI 5 mM glucose + 10% FBS, 0.0211 µM
# [16] = RPMI 5 mM glucose + 10% FBS, 0.0632 µM
# [17] = RPMI 5 mM glucose + 10% FBS, 0.19 µM
# [18] = RPMI 5 mM glucose + 10% FBS, 0.569 µM
# [19] = RPMI 5 mM glucose + 10% FBS, 1.71 µM
# [20] = RPMI 5 mM glucose + 10% FBS, 5.12 µM
# [21] = RPMI 5 mM glucose + 10% FBS, 15.4 µM
# [22] = RPMI 5 mM glucose + 10% FBS, 46.1 µM
# [23] = RPMI 5 mM glucose + 10% dialyzed FBS, 0.000781 µM
# [24] = RPMI 5 mM glucose + 10% dialyzed FBS, 0.00234 µM
# [25] = RPMI 5 mM glucose + 10% dialyzed FBS, 0.00702 µM
# [26] = RPMI 5 mM glucose + 10% dialyzed FBS, 0.0211 µM
# [27] = RPMI 5 mM glucose + 10% dialyzed FBS, 0.0632 µM
# [28] = RPMI 5 mM glucose + 10% dialyzed FBS, 0.19 µM
# [29] = RPMI 5 mM glucose + 10% dialyzed FBS, 0.569 µM
# [30] = RPMI 5 mM glucose + 10% dialyzed FBS, 1.71 µM
# [31] = RPMI 5 mM glucose + 10% dialyzed FBS, 5.12 µM
# [32] = RPMI 5 mM glucose + 10% dialyzed FBS, 15.4 µM
# [33] = RPMI 5 mM glucose + 10% dialyzed FBS, 46.1 µM
Compound,cell viability [1] [%],cell viability [2] [%],cell viability [3] [%],cell viability [4] [%],cell viability [5] [%],cell viability [6] [%],cell viability [7] [%],cell viability [8] [%],cell viability [9] [%],cell viability [10] [%],cell viability [11] [%],cell viability [12] [%],cell viability [13] [%],cell viability [14] [%],cell viability [15] [%],cell viability [16] [%],cell viability [17] [%],cell viability [18] [%],cell viability [19] [%],cell viability [20] [%],cell viability [21] [%],cell viability [22] [%],cell viability [23] [%],cell viability [24] [%],cell viability [25] [%],cell viability [26] [%],cell viability [27] [%],cell viability [28] [%],cell viability [29] [%],cell viability [30] [%],cell viability [31] [%],cell viability [32] [%],cell viability [33] [%]
COc1cc(CCc2cc(NC(=O)c3ccc(N4C[C@@H](C)N[C@@H](C)C4)cc3)n[nH]2)cc(OC)c1,109,125,131,128,127,52,85.8,77,64.4,29.8,18,111,113,117,123,96.1,47.8,80.7,66.2,63.5,29.7,19.5,122,122,124,125,101,52.1,96.2,87.7,64.1,31.6,18.5
O=C(CCCCCCC(=O)Nc1ccc([C@H]2O[C@@H](CSc3nc(-c4ccccc4)c(-c4ccccc4)o3)C[C@@H](c3ccc(CO)cc3)O2)cc1)NO,,,,,,,,,,,,109,124,128,134,121,112,115,114,87.4,8.6,7.11,113,117,135,135,124,133,130,116,77.6,9.58,7.49
COc1ccc(OC)c(-c2nnc3ccc(-c4ccc(OC)c(O[C@@H]5CCOC5)c4)nn23)c1,105,106,124,115,119,127,125,123,134,119,86.4,,,,,,,,,,,,103,109,117,115,116,112,123,131,117,122,89.7
N#Cc1ccc(Oc2ccc3c(c2)COB3O)cc1,111,122,111,104,124,114,126,114,117,105,46.4,105,108,112,92.3,122,114,115,133,120,129,26.9,115,127,119,85,126,107,120,129,97.3,124,38.4
OC[C@H]1O[C@H](C[C@@H]1O)N2\C=C(F)/C(=O)NC2=O,124,113,120,86.7,55.3,47.7,46.1,44.4,35.1,31.5,12.1,119,115,121,121,130,102,86.9,80.3,33.9,40.6,16.3,110,92.8,88.5,40.5,35.1,26.5,31.1,25.6,23.3,18.1,10.8
O=C(CS(=O)Cc1ccco1)NC/C=C\COc1cc(CN2CCCCC2)ccn1 (centres undefined),78.7,86.2,89.4,96.9,93.8,99.5,102,96.7,102,100,97.3,86,91.3,90.7,87.1,96.8,95.5,107,106,93.6,102,103,81.5,93.7,98.4,75.9,97.1,88.4,106,97.3,110,99.8,93.9
Cc1c(-c2cccc3c(CCCOc4cccc5ccccc45)c(C(=O)O)n(Cc4cccnc4)c23)c(COc2ccc(N3CCN([S+](=O)([O-])N(C)C)CC3)cc2)nn1C,92.3,99.5,85.1,85.2,104,82.8,83.5,97.6,81,79.2,48.3,100,108,86.2,129,111,128,112,114,102,95.5,54.8,107,99.1,80.5,83.2,100,91.5,109,96.5,77.1,70,43
CC[C@]12CC[C@H]3[C@@H](CCC/4=C/C(=O)CC[C@H]34)[C@@H]1CC[C@@]2(O)C#C,93.7,79.6,97.7,92.4,103,83.1,87.8,77.9,83.6,80.9,82.8,85.7,102,102,109,108,85.2,86.9,86.5,97.9,87.4,96.5,103,90.3,81.9,102,101,96.8,101,114,94.8,111,105
Cc1nn(C)c(COc2ccc(N3CCN([S+](=O)([O-])N(C)C)CC3)cc2)c1-c1cccc2c(CCCOc3cccc4ccccc34)c(C(=O)O)n(CCN3CCOCC3)c12,86,82.9,102,99.8,105,100,101,118,96.2,112,51.7,,,,,,,,,,,,97.3,106,105,106,110,91.4,123,114,71,117,21.4
COc1cccc2c1C(=O)c1c(O)c3c(c(O)c1C2=O)C[C@@](O)(C(=O)CO)C[C@@H]3O[C@H]1C[C@H](N)[C@H](O[C@H]2CCCCO2)[C@H](C)O1,101,106,111,103,102,129,102,81.8,13,109,72.2,79.7,84.3,89.5,91,65.2,96.1,66.6,44.8,7.83,95.8,59,92.9,110,119,123,117,115,95.8,77.3,18.3,126,105
C[C@@H]1CN(Cc2ccc(F)cc2)[C@@H](C)CN1C(=O)c1cc2c(C(=O)C(=O)N(C)C)cn(C)c2cc1Cl,97.6,99.7,100,111,111,109,106,102,85.6,98.2,97.2,84.5,78.1,85,87.2,101,91.1,96.8,87.4,97.6,72.3,57,115,104,110,107,119,108,108,109,82.3,97.2,75.4
C[C@H]1C[C@H]2[C@@H]3CC[C@](O)(C(=O)CO)[C@@]3(C)C[C@H](O)[C@@H]2[C@@]\4(C)/C=C\C(=O)\C=C14,78.4,85,76.7,87.1,86.2,75.6,57.1,41.3,47.4,46.9,42.6,76.9,104,90,101,90.5,102,71.3,39.2,51.5,51.2,40.2,90.6,92.4,101,95.7,93.2,96.3,72.1,40.9,45.7,45,33.3
C[C@@H](NCCCc1cccc(C(F)(F)F)c1)c1cccc2ccccc12,121,119,116,117,118,111,120,122,113,106,105,112,124,119,131,107,113,116,114,96.5,94.3,111,,,,,,,,,,,
CC[S+](=O)([O-])Nc1ccc2c(c1)/C(=C(/Nc1ccc(CN3CCCCC3)cc1)c1ccccc1)C(=O)N2,117,112,108,95.5,71.3,27.8,23.9,19.4,18.5,5.02,3.36,110,108,111,108,89.1,17.9,18.1,13.8,10,3.47,2.27,118,110,126,103,89.7,18.5,16.3,13.6,11.5,6.15,2.34
CC\12CCC(=O)\C=C1CCC3C2CCC4(C)C3CCC4(O)C#C (centres undefined),105,104,105,99.9,113,102,103,117,91.1,94.9,90.5,107,92.2,99.2,102,94.5,106,95.7,95.8,70.7,100,99,112,105,98.3,113,117,102,113,98.5,97.3,106,99.9
C/C(=N\NC(=S)N1CCC1)c1ccccn1,98.2,65.1,24,16.3,8.49,7,6.15,4.65,3.75,2.98,4.69,102,77.1,23.7,12.9,6.82,6.63,5.22,3.59,2.32,1.6,3.57,110,53.4,19.2,15.8,6.49,6.19,5.7,4.26,3.13,1.84,2.93
